Calls of active or inactive are those of the source.
What was measured:
[1] = target: T1, Short transient receptor potential channel 4 (Mus musculus, UniProt Q9QUQ5); assay: block of DAMGO-driven TRPC4 calcium entry – cell-based, HEK293 TRPC4/mu-opioid, Fluo-4 calcium, dose response (AID 434942); format: functional;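 note: potency of inhibitors blocking the TRPC4 calcium response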
T1 sequence (Q9QUQ5 whole entry): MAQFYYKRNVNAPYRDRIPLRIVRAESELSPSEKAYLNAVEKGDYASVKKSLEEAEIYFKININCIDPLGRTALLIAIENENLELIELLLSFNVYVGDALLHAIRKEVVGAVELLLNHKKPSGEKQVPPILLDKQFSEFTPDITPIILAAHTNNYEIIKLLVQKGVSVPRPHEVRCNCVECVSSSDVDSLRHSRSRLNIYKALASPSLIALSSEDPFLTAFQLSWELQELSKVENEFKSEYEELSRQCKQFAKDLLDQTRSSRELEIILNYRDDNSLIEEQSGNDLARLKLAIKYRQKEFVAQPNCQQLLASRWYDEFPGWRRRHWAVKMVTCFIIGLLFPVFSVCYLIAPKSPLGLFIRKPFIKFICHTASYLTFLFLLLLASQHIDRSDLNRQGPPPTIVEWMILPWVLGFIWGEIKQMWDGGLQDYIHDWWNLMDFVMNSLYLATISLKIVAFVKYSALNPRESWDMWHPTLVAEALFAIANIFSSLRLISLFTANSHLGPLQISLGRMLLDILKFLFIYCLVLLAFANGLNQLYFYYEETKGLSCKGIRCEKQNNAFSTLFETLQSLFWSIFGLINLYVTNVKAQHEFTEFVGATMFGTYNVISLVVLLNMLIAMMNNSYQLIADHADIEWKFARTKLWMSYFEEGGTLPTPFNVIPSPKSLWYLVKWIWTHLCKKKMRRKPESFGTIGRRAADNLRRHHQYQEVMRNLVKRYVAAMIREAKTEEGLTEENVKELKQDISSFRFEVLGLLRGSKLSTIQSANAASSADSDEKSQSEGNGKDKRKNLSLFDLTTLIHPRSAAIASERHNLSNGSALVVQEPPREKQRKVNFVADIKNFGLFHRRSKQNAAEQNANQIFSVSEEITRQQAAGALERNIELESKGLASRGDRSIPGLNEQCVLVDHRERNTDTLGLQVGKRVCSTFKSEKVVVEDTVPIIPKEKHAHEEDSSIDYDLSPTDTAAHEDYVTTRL

[2] = target: T2, Heat shock factor protein 1 (Mus musculus, UniProt P38532); assay: enhancement of HSF1-driven luciferase signal – cell-based, NIH3T3, luminescence, dose retest, confirmation (AID 435004); format: functional;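 note: stress induced by proteasome inhibitor MG132 added 30 min after compound; luciferase reporter driven by HSF1 response element in NIH3T3 cells; actives raise luminescence as potentiators of the MG132 stress response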
T2 sequence (P38532 whole entry): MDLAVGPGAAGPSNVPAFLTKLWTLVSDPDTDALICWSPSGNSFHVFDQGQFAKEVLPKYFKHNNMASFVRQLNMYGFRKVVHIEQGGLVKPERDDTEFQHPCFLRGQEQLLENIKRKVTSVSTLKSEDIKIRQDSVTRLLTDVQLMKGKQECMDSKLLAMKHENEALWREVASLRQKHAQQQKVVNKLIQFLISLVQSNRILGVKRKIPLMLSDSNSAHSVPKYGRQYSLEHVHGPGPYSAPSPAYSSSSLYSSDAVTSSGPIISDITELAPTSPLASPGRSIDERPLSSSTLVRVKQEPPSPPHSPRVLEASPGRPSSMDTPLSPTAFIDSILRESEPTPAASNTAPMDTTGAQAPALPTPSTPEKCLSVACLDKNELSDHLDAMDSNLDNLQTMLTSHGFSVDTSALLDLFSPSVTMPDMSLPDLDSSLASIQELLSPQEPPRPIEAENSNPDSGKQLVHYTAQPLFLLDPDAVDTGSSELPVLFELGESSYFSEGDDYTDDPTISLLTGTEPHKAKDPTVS

[3] = target: T1, Short transient receptor potential channel 4; assay: SAR Analysis for the identification of selective inhibits of the transient receptor potential cation channel C4 (TRPC4): Automated Electrophysiology. [Related pubchem assays (depositor defined):AID2256]; format: functional
[4] = restored growth of temperature-sensitive Burl-1 yeast – whole organism, S. cerevisiae, Burl-1 ts mutant, luminescence, counter-screen for SUMOylation pathway inhibitor project, dose response (AID 463199); format: functional
[5] = target: Lysine-specific demethylase 4A (Homo sapiens, UniProt O75164); assay: inhibition of JMJD2A H3K9me3 demethylation – biochemical, DELFIA europium, cherry-picked samples, selectivity assay for GASC-1 inhibitor project, dose response (AID 488840)
[6] = target: Lysine-specific demethylase 4C (Homo sapiens, UniProt Q9H3R0); assay: inhibition of JMJD2C H3K9me3 demethylation – biochemical, DELFIA europium, cherry-picked samples, dose response (AID 488835); format: functional
[7] = target: T3, Replicative DNA helicase DnaB (Mycobacterium tuberculosis, UniProt P9WMR3); assay: DnaB intein splicing inhibitors, dose response, biochemical, cell-free fluorescence (AID 449749); format: functional
T3 sequence (P9WMR3 whole entry): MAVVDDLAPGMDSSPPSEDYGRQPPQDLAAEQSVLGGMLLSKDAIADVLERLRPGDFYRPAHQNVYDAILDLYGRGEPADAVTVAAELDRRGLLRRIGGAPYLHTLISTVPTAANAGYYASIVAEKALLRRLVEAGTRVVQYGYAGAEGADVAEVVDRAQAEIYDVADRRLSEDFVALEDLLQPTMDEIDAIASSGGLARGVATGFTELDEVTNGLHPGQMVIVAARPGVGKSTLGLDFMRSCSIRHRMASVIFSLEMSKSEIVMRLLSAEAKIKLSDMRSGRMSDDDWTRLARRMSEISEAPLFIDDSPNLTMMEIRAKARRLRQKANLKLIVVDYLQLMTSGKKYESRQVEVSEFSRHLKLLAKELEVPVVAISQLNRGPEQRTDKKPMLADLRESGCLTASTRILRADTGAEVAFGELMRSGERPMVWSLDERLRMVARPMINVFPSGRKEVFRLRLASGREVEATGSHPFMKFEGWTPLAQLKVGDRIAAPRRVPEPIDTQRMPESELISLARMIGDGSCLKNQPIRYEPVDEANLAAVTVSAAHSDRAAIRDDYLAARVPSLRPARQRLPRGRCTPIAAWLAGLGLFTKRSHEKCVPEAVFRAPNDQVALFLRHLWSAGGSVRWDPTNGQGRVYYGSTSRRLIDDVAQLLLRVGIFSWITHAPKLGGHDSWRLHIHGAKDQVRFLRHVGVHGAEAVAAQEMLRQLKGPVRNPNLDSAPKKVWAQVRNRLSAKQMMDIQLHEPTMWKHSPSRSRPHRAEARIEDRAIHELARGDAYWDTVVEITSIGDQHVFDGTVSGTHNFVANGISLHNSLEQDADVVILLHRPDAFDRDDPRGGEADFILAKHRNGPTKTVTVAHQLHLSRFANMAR

[8] = target: T4, Protein RecA (Mycobacterium tuberculosis, UniProt P9WHJ3); assay: Fluorescence Cell-Free Homogeneous Dose Retest to Identify Inhibitors of RecA-Intein Splicing Activity. [Related pubchem assays (depositor defined):AID2097, AID2223, AID489010, AID492950]; format: functional
T4 sequence (P9WHJ3 whole entry): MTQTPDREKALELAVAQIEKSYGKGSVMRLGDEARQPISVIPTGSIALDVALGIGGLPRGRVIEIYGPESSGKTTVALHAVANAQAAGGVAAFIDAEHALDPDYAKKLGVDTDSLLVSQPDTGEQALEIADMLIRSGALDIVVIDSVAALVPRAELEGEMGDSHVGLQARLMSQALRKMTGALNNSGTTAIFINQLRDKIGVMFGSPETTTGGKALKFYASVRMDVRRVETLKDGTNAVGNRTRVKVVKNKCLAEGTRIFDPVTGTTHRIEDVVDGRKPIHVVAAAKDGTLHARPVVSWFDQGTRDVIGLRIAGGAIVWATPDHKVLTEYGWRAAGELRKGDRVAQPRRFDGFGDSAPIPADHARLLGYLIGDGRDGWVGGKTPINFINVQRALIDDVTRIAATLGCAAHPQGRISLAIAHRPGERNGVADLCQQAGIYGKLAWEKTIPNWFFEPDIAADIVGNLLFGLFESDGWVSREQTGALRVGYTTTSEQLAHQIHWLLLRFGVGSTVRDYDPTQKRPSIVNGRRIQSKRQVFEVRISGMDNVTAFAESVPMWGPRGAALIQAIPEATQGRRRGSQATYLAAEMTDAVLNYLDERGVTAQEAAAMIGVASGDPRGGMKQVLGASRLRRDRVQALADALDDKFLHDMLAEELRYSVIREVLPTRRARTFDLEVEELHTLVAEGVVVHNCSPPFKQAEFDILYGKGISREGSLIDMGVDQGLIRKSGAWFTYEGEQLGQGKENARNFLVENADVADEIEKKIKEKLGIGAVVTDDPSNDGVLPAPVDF

[9] = target: Eukaryotic translation initiation factor 4H (Homo sapiens, UniProt Q15056); assay: eIF4H binding inhibition – biochemical, uHTS, fluorescence polarization, translation initiation inhibitor project, primary screen (AID 2012)
[10] = decrease of insulin promoter-GFP reporter – imaging, high-content screening, mouse beta cells (AID 1628); format: functional; settings: MIN6
[11] = MIN6 cell viability loss – mouse insulinoma, cytotoxicity control, dose response (AID 2122); format: functional;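 note: confirmatory high-throughput counterscreen run to flag cytotoxic compounds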
[12] = target: Polyadenylate-binding protein 1 (Homo sapiens, UniProt P11940); assay: blockers of PABP interaction with poly(A) – biochemical, fluorescence polarization, […] (AID 2014)
[13] = target: DNA dC->dU-editing enzyme APOBEC-3A (Homo sapiens, UniProt P31941); assay: Dose Response confirmation of small molecule APOBEC3A DNA Deaminase Inhibitors via a fluorescence-based single-stranded DNA deaminase assay. [Related pubchem assays (depositor defined):AID493011, AID493024]; format: functional
[14] = target: DNA dC->dU-editing enzyme APOBEC-3G (Homo sapiens, UniProt Q9HC16); format: functional;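 note: Dose-response counterscreen measuring inhibition of APOBEC3G DNA deaminase activity, run while confirming APOBEC3A inhibitors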
[15] = target: Large T antigen (Simian virus 40, UniProt P03070); format: functional, Betapolyomavirus macacae;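 note: Confirmatory-stage PubChem screen for compounds that inhibit SV40 T antigen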
[16] = target: T5, Intestinal-type alkaline phosphatase (Mus musculus, UniProt P24822); assay: PubChem AID 488874; format: functional
[17] = target: T6, Intestinal-type alkaline phosphatase (Homo sapiens, UniProt P09923); assay: inhibition of human intestinal alkaline phosphatase – biochemical, luminescent, uHTS hits, set 2, dose response (AID 488793); format: functional
[18] = target: T6, Intestinal-type alkaline phosphatase; assay: Dose Response confirmation of uHTS hits from a small molecule inhibitors of human intestinal alkaline phosphatase via a luminescent assay. [Related pubchem assays (depositor defined):AID2544, AID2574]; format: functional
[19] = target: T6, Intestinal-type alkaline phosphatase; assay: activation of human intestinal alkaline phosphatase – biochemical, dose response (AID 488873); format: functional
[20] = target: T5, Intestinal-type alkaline phosphatase; assay: PubChem AID 488785; format: functional
[21] = target: T7, Alkaline phosphatase, tissue-nonspecific isozyme (Homo sapiens, UniProt P05186); assay: TNAP enzyme inhibition by screening hits, dose response, selectivity assay for mouse IAP inhibitor project, biochemical, human TNAP, uHTS hits (AID 488906); format: functional
T7 sequence (P05186 whole entry): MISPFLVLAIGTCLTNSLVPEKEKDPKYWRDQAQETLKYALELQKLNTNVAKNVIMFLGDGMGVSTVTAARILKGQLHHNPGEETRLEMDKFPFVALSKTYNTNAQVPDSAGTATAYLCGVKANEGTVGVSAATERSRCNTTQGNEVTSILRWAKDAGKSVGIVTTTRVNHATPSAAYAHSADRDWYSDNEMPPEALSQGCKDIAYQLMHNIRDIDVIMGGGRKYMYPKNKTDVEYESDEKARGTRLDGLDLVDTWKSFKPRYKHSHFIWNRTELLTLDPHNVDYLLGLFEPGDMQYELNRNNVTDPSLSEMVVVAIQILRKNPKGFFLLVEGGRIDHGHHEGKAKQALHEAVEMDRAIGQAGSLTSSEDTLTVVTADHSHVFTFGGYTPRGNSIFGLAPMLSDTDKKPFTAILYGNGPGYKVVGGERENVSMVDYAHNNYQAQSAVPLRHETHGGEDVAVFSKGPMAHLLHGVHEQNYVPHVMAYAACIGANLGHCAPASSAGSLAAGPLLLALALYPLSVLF

[22] = target: T7, Alkaline phosphatase, tissue-nonspecific isozyme; assay: inhibition of tissue-nonspecific alkaline phosphatase – biochemical, dose response (AID 488882); format: functional
[23] = target: T8, Cytochrome P450 1A2 (Homo sapiens, UniProt P05177);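 note: PubChem cytochrome P450 panel assay, CYP1A2 panel member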
T8 sequence (P05177 whole entry): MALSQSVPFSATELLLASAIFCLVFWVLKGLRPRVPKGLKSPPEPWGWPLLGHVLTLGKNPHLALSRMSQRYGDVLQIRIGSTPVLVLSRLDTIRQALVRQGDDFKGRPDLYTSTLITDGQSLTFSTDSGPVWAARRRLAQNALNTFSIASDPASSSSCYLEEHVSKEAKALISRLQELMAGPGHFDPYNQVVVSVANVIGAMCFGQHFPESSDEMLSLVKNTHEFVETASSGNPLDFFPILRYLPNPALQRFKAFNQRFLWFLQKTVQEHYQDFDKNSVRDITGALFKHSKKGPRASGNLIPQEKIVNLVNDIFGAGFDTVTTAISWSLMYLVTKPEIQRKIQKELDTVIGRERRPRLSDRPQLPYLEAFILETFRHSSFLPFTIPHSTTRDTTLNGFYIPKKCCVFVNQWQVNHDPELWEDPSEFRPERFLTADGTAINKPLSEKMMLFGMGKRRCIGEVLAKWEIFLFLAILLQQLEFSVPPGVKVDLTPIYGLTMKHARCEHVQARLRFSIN

T6 sequence (P09923 whole entry): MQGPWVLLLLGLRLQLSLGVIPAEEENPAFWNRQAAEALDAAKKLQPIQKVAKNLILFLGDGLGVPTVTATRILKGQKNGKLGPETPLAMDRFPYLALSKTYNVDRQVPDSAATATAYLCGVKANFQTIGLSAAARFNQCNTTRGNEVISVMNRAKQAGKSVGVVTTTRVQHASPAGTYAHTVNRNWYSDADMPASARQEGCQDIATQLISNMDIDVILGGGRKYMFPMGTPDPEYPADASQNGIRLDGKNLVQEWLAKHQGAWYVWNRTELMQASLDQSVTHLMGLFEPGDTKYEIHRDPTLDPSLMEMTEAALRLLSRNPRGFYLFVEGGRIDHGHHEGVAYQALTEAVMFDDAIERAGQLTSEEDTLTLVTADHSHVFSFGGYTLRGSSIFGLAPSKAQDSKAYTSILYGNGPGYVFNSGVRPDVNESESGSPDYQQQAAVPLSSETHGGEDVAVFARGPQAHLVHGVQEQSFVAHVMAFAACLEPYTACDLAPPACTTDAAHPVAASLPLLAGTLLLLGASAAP
T5 sequence (P24822 whole entry): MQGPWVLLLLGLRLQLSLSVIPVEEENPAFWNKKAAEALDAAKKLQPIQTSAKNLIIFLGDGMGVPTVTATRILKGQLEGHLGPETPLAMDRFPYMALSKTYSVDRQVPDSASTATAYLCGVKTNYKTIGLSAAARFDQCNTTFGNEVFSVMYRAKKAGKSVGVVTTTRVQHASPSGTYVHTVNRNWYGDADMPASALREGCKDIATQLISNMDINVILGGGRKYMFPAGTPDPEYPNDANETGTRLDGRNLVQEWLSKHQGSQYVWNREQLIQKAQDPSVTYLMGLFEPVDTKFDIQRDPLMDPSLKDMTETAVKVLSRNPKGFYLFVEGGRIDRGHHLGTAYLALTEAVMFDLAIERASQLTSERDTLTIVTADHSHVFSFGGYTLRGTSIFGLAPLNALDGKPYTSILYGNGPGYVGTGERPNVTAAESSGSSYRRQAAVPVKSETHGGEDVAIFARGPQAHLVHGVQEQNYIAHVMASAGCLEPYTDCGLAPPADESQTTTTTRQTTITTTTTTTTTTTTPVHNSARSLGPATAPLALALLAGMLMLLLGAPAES
Sequence of Large T antigen (P03070 whole entry): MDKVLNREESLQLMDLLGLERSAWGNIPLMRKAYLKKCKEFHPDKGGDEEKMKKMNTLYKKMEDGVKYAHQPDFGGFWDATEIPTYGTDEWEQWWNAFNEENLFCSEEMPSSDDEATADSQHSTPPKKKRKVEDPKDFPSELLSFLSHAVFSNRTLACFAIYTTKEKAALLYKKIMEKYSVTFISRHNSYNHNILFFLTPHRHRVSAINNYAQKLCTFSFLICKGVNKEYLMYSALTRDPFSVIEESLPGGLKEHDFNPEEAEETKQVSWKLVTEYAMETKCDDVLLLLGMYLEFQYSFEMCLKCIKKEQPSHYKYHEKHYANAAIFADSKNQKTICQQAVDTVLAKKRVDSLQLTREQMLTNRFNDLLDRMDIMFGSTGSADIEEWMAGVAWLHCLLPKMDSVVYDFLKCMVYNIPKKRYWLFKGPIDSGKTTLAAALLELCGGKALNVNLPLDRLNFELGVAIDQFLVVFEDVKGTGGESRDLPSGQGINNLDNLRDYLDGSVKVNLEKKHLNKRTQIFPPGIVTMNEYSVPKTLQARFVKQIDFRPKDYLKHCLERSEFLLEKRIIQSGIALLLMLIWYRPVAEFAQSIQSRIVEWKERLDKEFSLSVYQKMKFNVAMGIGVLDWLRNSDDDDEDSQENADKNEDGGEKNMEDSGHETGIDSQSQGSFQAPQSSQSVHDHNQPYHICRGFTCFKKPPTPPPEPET
Sequence of Polyadenylate-binding protein 1 (P11940 whole entry): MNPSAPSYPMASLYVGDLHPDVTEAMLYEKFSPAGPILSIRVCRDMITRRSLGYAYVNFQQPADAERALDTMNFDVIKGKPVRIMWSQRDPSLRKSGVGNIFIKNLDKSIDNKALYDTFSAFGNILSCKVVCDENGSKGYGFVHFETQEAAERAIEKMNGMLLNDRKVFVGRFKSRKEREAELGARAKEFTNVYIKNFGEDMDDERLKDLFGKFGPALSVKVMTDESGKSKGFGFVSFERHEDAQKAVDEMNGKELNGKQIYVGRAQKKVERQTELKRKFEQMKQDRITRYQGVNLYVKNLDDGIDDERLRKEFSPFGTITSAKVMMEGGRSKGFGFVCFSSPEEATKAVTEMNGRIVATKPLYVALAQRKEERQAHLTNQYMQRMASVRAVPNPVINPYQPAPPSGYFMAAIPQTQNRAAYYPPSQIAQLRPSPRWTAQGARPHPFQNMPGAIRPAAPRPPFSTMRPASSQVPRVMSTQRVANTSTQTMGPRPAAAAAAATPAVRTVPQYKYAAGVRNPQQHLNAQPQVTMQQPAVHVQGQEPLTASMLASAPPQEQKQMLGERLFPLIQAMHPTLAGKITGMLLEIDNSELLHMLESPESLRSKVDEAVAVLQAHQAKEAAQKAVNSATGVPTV
Sequence of Lysine-specific demethylase 4A (O75164 whole entry): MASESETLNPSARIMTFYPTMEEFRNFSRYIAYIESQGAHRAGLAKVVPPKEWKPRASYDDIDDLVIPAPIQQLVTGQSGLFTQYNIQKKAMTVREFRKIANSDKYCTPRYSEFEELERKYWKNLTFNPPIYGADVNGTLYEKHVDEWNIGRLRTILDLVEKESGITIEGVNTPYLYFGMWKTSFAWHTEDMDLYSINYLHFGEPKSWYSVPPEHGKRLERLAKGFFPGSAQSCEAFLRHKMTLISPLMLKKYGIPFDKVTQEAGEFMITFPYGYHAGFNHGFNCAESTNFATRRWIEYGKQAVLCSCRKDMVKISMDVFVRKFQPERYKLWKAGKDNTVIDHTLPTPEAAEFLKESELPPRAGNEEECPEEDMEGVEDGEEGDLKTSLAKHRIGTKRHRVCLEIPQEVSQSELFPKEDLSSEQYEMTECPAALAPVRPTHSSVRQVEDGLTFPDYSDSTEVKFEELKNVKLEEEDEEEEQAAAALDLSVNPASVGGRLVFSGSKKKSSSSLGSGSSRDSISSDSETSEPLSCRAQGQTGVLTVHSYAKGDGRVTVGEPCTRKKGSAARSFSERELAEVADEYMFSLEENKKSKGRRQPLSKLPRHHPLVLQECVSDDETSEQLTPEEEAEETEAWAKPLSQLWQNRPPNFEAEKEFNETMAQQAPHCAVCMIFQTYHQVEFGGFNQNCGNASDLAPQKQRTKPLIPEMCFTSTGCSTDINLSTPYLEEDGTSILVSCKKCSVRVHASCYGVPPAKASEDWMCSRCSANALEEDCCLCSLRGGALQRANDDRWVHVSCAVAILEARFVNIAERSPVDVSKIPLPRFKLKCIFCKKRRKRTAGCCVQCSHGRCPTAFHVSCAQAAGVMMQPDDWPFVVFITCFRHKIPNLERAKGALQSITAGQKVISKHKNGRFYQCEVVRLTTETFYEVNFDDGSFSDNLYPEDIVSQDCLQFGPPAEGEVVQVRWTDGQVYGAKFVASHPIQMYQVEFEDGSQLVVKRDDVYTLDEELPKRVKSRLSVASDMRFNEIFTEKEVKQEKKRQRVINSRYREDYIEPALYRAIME
Sequence of DNA dC->dU-editing enzyme APOBEC-3A (P31941 whole entry): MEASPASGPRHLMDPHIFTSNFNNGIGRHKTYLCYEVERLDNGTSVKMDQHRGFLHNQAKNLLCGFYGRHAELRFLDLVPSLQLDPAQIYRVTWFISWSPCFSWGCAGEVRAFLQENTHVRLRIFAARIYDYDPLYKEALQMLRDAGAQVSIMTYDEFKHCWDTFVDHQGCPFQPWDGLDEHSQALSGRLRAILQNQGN
Sequence of DNA dC->dU-editing enzyme APOBEC-3G (Q9HC16 whole entry): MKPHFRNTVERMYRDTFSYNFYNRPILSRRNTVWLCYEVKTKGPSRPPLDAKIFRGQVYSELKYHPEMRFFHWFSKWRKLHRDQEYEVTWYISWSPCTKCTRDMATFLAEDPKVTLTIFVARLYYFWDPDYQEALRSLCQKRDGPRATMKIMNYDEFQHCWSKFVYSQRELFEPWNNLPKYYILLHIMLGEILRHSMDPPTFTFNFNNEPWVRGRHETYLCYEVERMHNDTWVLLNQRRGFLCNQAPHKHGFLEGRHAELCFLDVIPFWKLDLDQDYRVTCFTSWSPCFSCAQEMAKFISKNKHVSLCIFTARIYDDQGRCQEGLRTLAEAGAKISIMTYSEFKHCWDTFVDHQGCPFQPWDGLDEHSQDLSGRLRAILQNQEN

## COc1ccc2c(C)cc(N3CCCCCC3)nc2c1
[1]
  EC50: 0.531 µM (active)
[2]
  EC50: > 260 µM (inactive)
[3]
  IC50: 2.38 µM (active)

## COc1ccc2[nH]cc(C(=O)C(=O)N3CCCCC3)c2c1
[4]
  AC50: 93.6 µM (active)

## O=c1[nH]cc(/N=C/c2cc(Cl)cc(Cl)c2O)c(=O)[nH]1
[5]
  AC50: 18.1 µM (active)
[6]
  AC50: 0.749 µM (active)
[7]
  AC50: 4.92 µM (active)
[8]
  EC50: 4.14 µM (active)

## CCCCCn1ccc(=N)cc1
[9]
  IC50: > 100 µM (inactive)
[10]
  IC50: 3.31 µM (active)
[11]
  IC50: 2.58 µM (active)
[12]
  IC50: 2.73 µM (active)
[13]
  IC50: 1.3 µM (active)
[14]
  IC50: 1.92 µM (active)

## N#C/C(=C\c1ccc(O)c(O)c1)C(=O)c1ccc(O)c(O)c1
[15]
  IC50: 0.82 µM (active)
[16]
  IC50: 0.259 µM (active)
[17]
  IC50: 2.68 µM (active)
[18]
  IC50: 4.41 µM (active)
[19]
  EC50: 6.36 µM (active)
[20]
  IC50: 7.13 µM (active)
[21]
  IC50: > 100 µM (inactive)
[22]
  IC50: 9.49 µM (active)
[23]
  AC50: 31.6 µM (inconclusive)
